Experimental data published in patent US8153791B2, “Substituted pyrimidinyl oxime kinase inhibitors” (Janssen Pharmaceutica N.V., priority 2005, dated 2012).
Like-named read-outs stand apart in the source and are kept apart here.

Columns and labels:
EGFR = molecular target: T1, EGFR (Homo sapiens, UniProt P00533); assay: EGFR Kinase Assay; format: biochemical;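 further: recombinant GST-tagged EGFR expressed in Sf9 cells, phosphorylating biotinylated polyGluTyr with γ-33P ATP on Streptavidin Flashplates, 1 h at 30 °C, scintillation counting, inhibition relative to plate maximum and minimum signals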
T1 construct: The intracellular portion of EGFR started at nucleotide 2189 (corresponding to amino acid 667) and ended at the termination codon; made in house; host or cells: Sf9 insect cells (baculovirus)
T1 sequence (P00533 669-1210 limits assumed): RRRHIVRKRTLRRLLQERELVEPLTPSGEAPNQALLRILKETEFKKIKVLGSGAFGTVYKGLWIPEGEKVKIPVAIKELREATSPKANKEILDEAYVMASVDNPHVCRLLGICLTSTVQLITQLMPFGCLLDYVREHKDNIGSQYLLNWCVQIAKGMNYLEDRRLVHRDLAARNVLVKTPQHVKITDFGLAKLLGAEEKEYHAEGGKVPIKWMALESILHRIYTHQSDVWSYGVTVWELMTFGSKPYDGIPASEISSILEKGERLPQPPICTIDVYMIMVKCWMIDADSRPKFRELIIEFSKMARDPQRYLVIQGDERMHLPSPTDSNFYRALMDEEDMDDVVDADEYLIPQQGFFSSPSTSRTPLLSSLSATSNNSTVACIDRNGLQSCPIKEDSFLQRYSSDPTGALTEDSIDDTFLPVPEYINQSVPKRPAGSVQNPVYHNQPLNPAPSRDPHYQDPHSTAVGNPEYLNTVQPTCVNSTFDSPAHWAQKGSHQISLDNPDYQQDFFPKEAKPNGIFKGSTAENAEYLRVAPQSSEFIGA

HER-2 = molecular target: T2, HER-2 (Homo sapiens, UniProt P04626); assay: HER-2 Kinase Assay; format: biochemical; settings: read-out: HER2 IC50;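 further: HER2 kinase reaction read by scintillation counting, inhibition scaled between maximum and minimum signals set on each plate, IC50 from inhibition against log concentration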
T2 construct: purchased Proqinase (Freiburg, Germany)
T2 sequence (P04626 679-1255): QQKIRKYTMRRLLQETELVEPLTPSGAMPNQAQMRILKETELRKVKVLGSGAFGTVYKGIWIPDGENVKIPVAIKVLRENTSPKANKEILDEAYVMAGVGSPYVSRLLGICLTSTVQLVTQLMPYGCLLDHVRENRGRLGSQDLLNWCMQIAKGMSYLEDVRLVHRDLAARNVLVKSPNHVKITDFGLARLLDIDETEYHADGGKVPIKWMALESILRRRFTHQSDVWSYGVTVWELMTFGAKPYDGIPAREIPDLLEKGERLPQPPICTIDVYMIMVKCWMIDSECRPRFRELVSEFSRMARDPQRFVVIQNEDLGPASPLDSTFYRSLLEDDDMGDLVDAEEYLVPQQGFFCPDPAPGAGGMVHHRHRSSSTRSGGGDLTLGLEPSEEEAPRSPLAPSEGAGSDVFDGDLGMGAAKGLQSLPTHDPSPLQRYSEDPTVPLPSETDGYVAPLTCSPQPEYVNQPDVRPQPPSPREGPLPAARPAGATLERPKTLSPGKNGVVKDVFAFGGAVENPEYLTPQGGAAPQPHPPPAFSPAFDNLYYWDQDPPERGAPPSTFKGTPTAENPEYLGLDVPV

[1] = system: HeLa cervical adenocarcinoma; assay: In vitro cell proliferation inhibition, HeLa; format: cell-based; settings: Homo sapiens; HeLa cell line; ATP-Lite method or C14 thymidine method; read-out: HeLa IC50
Source text: (§1) The ability of a test compound to inhibit unregulated in vitro cell proliferation may be determined by measuring incorporation of ^14C-labelled thymidine into newly synthesized DNA within cell lines derived from carcinomas originating from several tissues. Accordingly, the effect of a test compound on proliferation of cells with a variety of phenotypes may be determined.
(§2) Carcinoma cell lines used include the HeLa cervical adenocarcinoma from the American Type Culture Collection (ATCC Cat. #CCL2), SK-OV-3 ovarian carcinoma (ATCC Cat. #HTB-77), MCF-7 breast carcinoma (ATCC Cat. #HTB-22), BT474 breast carcinoma (ATCC Cat. #HTB-20), SKBR3 breast carcinoma (ATCC Cat. #HTB-30), A431 epidermoid carcinoma (ATCC Cat. #CRL-1555) and NCI-N87 gastric carcinoma (ATCC Cat. #CRL-5822).
(§3) The carcinoma cells are trypsinized and counted. The cells (3000-8000 count) are added to each well of a 96-well CytoStar tissue culture treated scintillating microplate (Amersham #RPNQ0160) in complete medium (100 μL) and the plate is then incubated in complete medium for 24 hrs at 37° C. in an inert atmosphere containing 5% CO2.
(§4) Test compound (1 μL) in 100% DMSO is added to the plate test-wells with DMSO only added to control-wells. The plate is incubated in complete medium for a second 24 hr period at 37° C. in an atmosphere containing 5% CO2.
(§5) An aliquot of a solution of Methyl ^14C-thymidine (56 mC/mmol) (NEN #NEC568 or Amersham #CFA532) and complete medium (20 μL to provide 0.2 μCi/well) is then added to each well and the plate is incubated for a third 24 hr period at 37° C. in an atmosphere containing 5% CO2.
(§6) The plate contents are then discarded, the plate is washed twice with PBS (200 μL) and then PBS (200 μL) is added to each well. The plate is sealed and the degree of methyl ^14C-thymidine incorporation is quantified on a Packard Top Count.
(§7) Cell proliferation of the Hela cell line was measured using the ATP-Lite method as described in the ATP Lite Kit (Perkin-Elmer Kit Number 6106941) or the C^14 method as described above. Cell proliferation of the other cell lines was measured using the C^14 method.
(§8) The term “NT” means that the compound indicated was not tested in a particular cell line. The lack of such testing is not intended to imply a belief that the compound is not otherwise active in a particular cell line or any other cell line not tested.

[2] = system: SK-OV-3 ovarian carcinoma; assay: In vitro cell proliferation inhibition, SK-OV-3; format: cell-based; settings: Homo sapiens; SK-OV-3 cells, 14C-thymidine incorporation
Source text: as §1, §2, §3, §4, §5, §6, §7, §8

MCF-7 breast carcinoma = assay: In vitro cell proliferation inhibition, MCF-7; format: cell-based; settings: Homo sapiens, MCF7; MCF-7 cells, 14C-thymidine incorporation
Source text: as §1, §2, §3, §4, §5, §6, §7, §8

BT474 breast carcinoma = assay: In vitro cell proliferation inhibition, BT474; format: cell-based; settings: Homo sapiens, BT-474; BT474 cells, 14C-thymidine incorporation; read-out: IC50 BT474
Source text: as §1, §2, §3, §4, §5, §6, §7, §8

SKBR3 breast carcinoma = assay: In vitro cell proliferation inhibition, SKBR3; format: cell-based; settings: Homo sapiens, SK-BR-3; SKBR3 cells, 14C-thymidine incorporation; read-out: IC50 SKBR3
Source text: as §1, §2, §3, §4, §5, §6, §7, §8

[3] = system: A431 epidermoid carcinoma; assay: In vitro cell proliferation inhibition, A431; format: cell-based; settings: Homo sapiens, A-431; A431 cells, 14C-thymidine incorporation; read-out: IC50 A431
Source text: as §1, §2, §3, §4, §5, §6, §7, §8

[4] = system: NCI-N87 gastric carcinoma; assay: In vitro cell proliferation inhibition, NCI-N87; format: cell-based; settings: Homo sapiens, NCI-N87; N87 cells, 14C-thymidine incorporation; read-out: IC50 N87
Source text: as §1, §2, §3, §4, §5, §6, §7, §8

[5] = Blood-Brain Barrier Penetration (concentration in plasma and brain); format: in vivo, Sprague Dawley rats; settings: male, Sprague Dawley, rat; for concentration at 60 min: male Sprague Dawley rats; for concentration at 120 min: 120 min (brain)
Method: The blood-brain barrier penetration of Compound 78 was examined in male Sprague Dawley rats following i.v. (3 mg/kg) or oral (10 mg/kg) administration.
The i.v. formulation consisted of a 1 mg/mL dose in vehicle (10% solutol in D5W at pH 3) with plasma samples drawn at 0.25 hours, 0.5 hours and 1 hour after administration.
The oral (p.o) formulation consisted of a 1 mg/mL dose in vehicle (0.5% methylcellulose) with plasma samples drawn at 0.5 hours, 1 hour and 2 hours after administration.
The plasma samples (0.5 ml) were collected and centrifuged (2000 rpm, 3 min), then stored at −60° C. until LC-MS/MS analysis. Brain samples were collected immediately after the last blood sample collection. The samples were rinsed with 0.9% NaCl, patted dry, then weighed and placed in Falcon 14 mL polypropylene round-bottom tubes containing 3 mL methanol. The methanolic mixtures were homogenized with an OMNI TH115 homogenizer then centrifuged for 10 minutes at 7,000 rpm. The supernatant was removed and stored frozen in 15 mL polyethylene tubes at −60° C. until LC-MS/MS analysis.

[6] = system: N87 gastric carcinoma cells; assay: N87 Human Tumor Xenograft Model; format: in vivo, nu/nu mice; settings: treatment groups 5-10, 100 mg/kg oral once daily for 30 days
Source text: The N87 gastric carcinoma cell line overexpresses HER-2 as a result of gene amplification and forms tumors in nude mice (Kasprzyk P G, Song S U, Di Fiore P P, King C R, Therapy of an animal model of human gastric cancer using a combination of anti-erbB-2 monoclonal antibodies, Cancer Res., 1992, 52, 2771-2776).
Female nu/nu mice (Charles River; 8 to 9 weeks of age) were implanted subcutaneously with from 3×10^6 to 5×10^6 N87 gastric carcinoma cells (obtained from the American Type Culture Collection, ATCC Cat. #CRL-5822) in the flank. Animals were weighed twice weekly during the study and examined frequently.
Tumor size was monitored twice weekly and then daily as the neoplasms reached the target weight range (about 75 mg). Animals were pair-matched when tumors were in the 62 to 126 mg range (group mean tumor size: 70 to 74 mg). Estimated tumor weight was calculated using the formula: […]
A test compound was orally administered daily in the test treatment group after the tumor reached the target weight. For treatment group 1, the test compound was administered once daily for 35 days. For treatment group 2, the test compound was administered once daily for 30 days. For treatment group 3, each dose of test compound was administered once daily for 30 days. For treatment group 4, each dose of test compound was administered once daily for 36 days. For treatment group 5-10, the test compound was administered once daily for 30 days.
Tumor weight was measured daily for subjects (n=8) in the test group and the matched subjects (n=8) in the vehicle-treated group.
The tumor growth inhibition (in percent) was calculated on the last day of the study using the formula: […]
(§9) Statistical significance was evaluated by comparing the vehicle group to the test group using a two tailed Students t test. The term “NC” means that the P value for the treatment group indicated was not calculated. The lack of such calculation is not intended to imply a belief that the activity of the compound is not otherwise statistically significant in this particular cell line or in any other cell line not tested.

[7] = system: A431 epidermoid carcinoma cells; assay: A431 Human Tumor Xenograft Model; format: in vivo, nu/nu mice; settings: treatment groups 5-10, 100 mg/kg oral once daily for 30 days
Source text: The A431 epidermoid carcinoma cell line overexpresses EGFR, activating signaling pathways responsible for driving the proliferation, invasion and survival of cancer cells and forming tumors in nude mice (Giard D J, Aaronson S A, Todaro G J, Arnstein P, Kersey J H, Dosik H, Parks W P, In vitro cultivation of human tumors: establishment of cell lines derived from a series of solid tumors, J. Natl. Cancer Inst., 1973, 51, 1417-1423; and, Kawamoto T, Sato J D, Le A, Polikoff J, Sato G H, Mendelsohn J, Growth stimulation of A431 cells by epidermal growth factor: identification of high-affinity receptors for epidermal growth factor by an anti-receptor monoclonal antibody, Proc. Natl. Acad. Sci. USA, 1983, 80, 1337-1341).
Female nu/nu mice (Charles River; 8 to 9 weeks of age) were implanted subcutaneously in the flank with 4×10^6 A431 epidermoid carcinoma cells (obtained from the American Type Culture Collection, ATCC Cat. #CRL-1555). Animals were weighed twice weekly during the study and examined frequently.
Tumor size was monitored twice weekly and then daily as the neoplasms reached the target weight range (about 75 mg). Animals were pair-matched when tumors were in the 62 to 126 mg range (group mean tumor size: 70 to 74 mg). Estimated tumor weight was calculated using the formula of Example 4.
A test compound was orally administered daily in the test treatment group after the tumor reached the target weight. For treatment groups 1 and 2, each dose of test compound was administered once daily for 25 days. For treatment group 3, each dose of test compound was administered twice daily for 25 days. For treatment group 4, the test compound was administered twice daily for 30 days. For treatment group 5-10, the test compound was administered once daily for 30 days.
as §9

SMILES | IC50 (EGFR) | IC50 (HER-2) | IC50 [1] | IC50 [2] | IC50 (MCF-7 breast carcinoma) | IC50 (BT474 breast carcinoma) | IC50 (SKBR3 breast carcinoma) | IC50 [3] | IC50 [4] | concentration at 60 min ([5]; brain, iv, 3 mg/kg, i.v. 3 mg/kg, 60 min (brain), read-out: Concentration in Brain, Mean ± SEM) | concentration at 120 min ([5]; brain, po, 10 mg/kg, p.o. 10 mg/kg, first of two lines so labelled, read-out: Concentration in Brain, Mean ± SEM) | concentration at 120 min ([5]; brain, po, 10 mg/kg, p.o. 10 mg/kg, second of two lines so labelled, read-out: Concentration in Brain, Mean ± SEM) | Kp at 1 h ([5]; brain/plasma, iv, i.v. 3 mg/kg, 60 min, read-out: Brain/Plasma Ratio) | Kp at 2 h ([5]; brain/plasma, po, p.o. 10 mg/kg, read-out: Brain/Plasma Ratio) | concentration at 60 min ([5]; plasma, iv, 3 mg/kg, i.v. 3 mg/kg, 60 min (plasma), read-out: Concentration in Plasma, Mean ± SEM) | concentration at 60 min ([5]; plasma, po, 10 mg/kg, p.o. 10 mg/kg, 60 min (plasma), read-out: Concentration in Plasma, Mean ± SEM) | N87 Tumor Growth Inhibition TGI [6] | A431 Tumor Growth Inhibition TGI [7]
Nc1ncnc(Nc2ccc3c(cnn3Cc3cccc(F)c3)c2)c1/C=N/OCCN1CCOCC1 [Cpd 19, (5E)-4-amino-6-[1-(3-fluoro-benzyl)-1H-indazol-5-ylamino]-pyrimidine-5-carbaldehyde O-(2-morpholin-4-yl-ethyl)-oxime] | 20 nM | 50 nM | 10 µM | 19.1 µM | 2.5 µM | 30 nM | 100 nM | 1100 nM | 40 nM | – | – | – | – | – | – | – | – | –
Nc1ncnc(Nc2ccc(OCc3ccccc3)c(Cl)c2)c1/C=N/OCCCO [Cpd 76, (5E)-4-amino-6-(4-benzyloxy-3-chloro-phenylamino)-pyrimidine-5-carbaldehyde O-(3-hydroxy-propyl)-oxime] | 10 nM | 30 nM | 59.4 µM | 24.1 µM | 10 µM | 200 nM | 300 nM | 1800 nM | 300 nM | – | – | – | – | – | – | – | – | –
Nc1ncnc(Nc2ccc(OCc3ccccc3)c(Cl)c2)c1/C=N/OCCN1CCOCC1 [Cpd 78] | 20 nM | 60 nM | 19.6 µM | 100 µM | 100 µM | 60 nM | 200 nM | 800 nM | 200 nM | 307 ± 55 ng/g | 46.1 ± 17.4 ng/g | 51.2 ± 13.7 ng/g | 2.5 | 1.2 | 124 ± 5.5 ng/mL | 73.6 ± 16.4 ng/mL | – | –
Nc1ncnc(Nc2ccc3c(ccn3Cc3cccc(F)c3)c2)c1/C=N/OCCCO [Cpd 91, (5E)-4-amino-6-[1-(3-fluoro-benzyl)-1H-indol-5-ylamino]-pyrimidine-5-carbaldehyde O-(3-hydroxy-propyl)-oxime] | 7 nM | 30 nM | 9.4 µM | 5.4 µM | 10 µM | 200 nM | 300 nM | 1300 nM | 200 nM | – | – | – | – | – | – | – | – | –
Nc1ncnc(Nc2ccc(OCc3ccccc3)c(Cl)c2)c1/C=N/OCCN1CCCCC1 [Cpd 95, (5E)-4-amino-6-(4-benzyloxy-3-chloro-phenylamino)-pyrimidine-5-carbaldehyde O-(2-piperidin-1-yl-ethyl)-oxime] | 50 nM | 200 nM | 12.1 µM | 2.4 µM | 1 µM | 10000 nM | 10000 nM | 100000 nM | 1100 nM | – | – | – | – | – | – | – | – | –
Nc1ncnc(Nc2ccc3c(cnn3Cc3cccc(F)c3)c2)c1/C=N/OCCN1CCCCC1 [Cpd 96, (5E)-4-amino-6-[1-(3-fluoro-benzyl)-1H-indazol-5-ylamino]-pyrimidine-5-carbaldehyde O-(2-piperidin-1-yl-ethyl)-oxime] | 60 nM | 100 nM | 14.7 µM | 15.3 µM | 2.1 µM | 200 nM | 400 nM | 800 nM | 200 nM | – | – | – | – | – | – | – | – | –
Nc1ncnc(Nc2ccc(OCc3ccccc3)c(Cl)c2)c1/C=N/OCc1ccccn1 [Cpd 114, (5E)-4-amino-6-(4-benzyloxy-3-chloro-phenylamino)-pyrimidine-5-carbaldehyde O-pyridin-2-ylmethyl-oxime] | – | – | – | – | – | – | – | – | – | – | – | – | – | – | – | – | 47% | −3%
